Measured values reported in patent US20160331779A1 (priority 2015, published 2016).
Where “and” joins values, the source holds several entries; their conditions need not be identical. Equal entries are not always repeated. Where two headings read alike, the source gives them in different places.

Key:
[1] = test system: A549 cells; details: pH 4
[2] = test system: streptokinase enzyme from S. pyogenes; assay: streptokinase inactivation, clot formation enzymatic assay; assay type: biochemical; details: streptokinase 175 U/mL incubated 1 hour; fibrin remained insoluble, glass bead remained at top
Description: Inactivation of streptokinase was determined by clot formation enzymatic assay (Sigma Aldrich, St. Louis, Mo.), whereby thrombin converts the soluble fibrinogen into […] (Crew 2013). In the presence of streptokinase enzyme from S. pyogenes, the insoluble fibrin is converted into soluble fibrin fragments. Several hours before the study, streptokinase 175 U/mL) was incubated with the irrigation solution for 1 hour, followed by inactivation of excess irrigation solution by adding an equal volume of 20 mM methionine for 1 hour at room temperature.
In a separate glass tube, fibrinogen solution containing borate buffer, gelatin diluent, and plasminogen were mixed by swirling, and then equilibrated at 37° C. for 3 minutes. Irrigation solution and methionine treated streptokinase was added to the solution, mixed by swirling, and equilibrated at 37° C. for 1 minute prior to the addition of thrombin. The solution was mixed by swirling and equilibrated at 37° C. for approximately 2-3 minutes to allow for clot formation. A 4 mm glass bead was added to the top of the reaction mixture, and the time for the glassbead to touch the bottom of the tube was observed. In this clot assay, 0.001 μg/mL of the hypochlorous acid completely inactivated streptokinase, causing the fibrin to remain insoluble in solution, and the glass bead to remain at the top of the reaction mixture.

[3] = test system: root canal microorganisms; details: 2.5% NaOCl, after biomechanical preparation; cited from earlier work
[4] = 2.5% NaOCl, cited from earlier work
[5] = test system: Aspergillus flavus; details: added to the fungal growth medium prior to inoculation; cited from earlier work
[6] = target: alpha-hemolysin toxin of S. aureus (Staphylococcus aureus, UniProt P09616); assay type: cell-based
alpha-hemolysin toxin of S. aureus, sequence (P09616 27-319 limits assumed): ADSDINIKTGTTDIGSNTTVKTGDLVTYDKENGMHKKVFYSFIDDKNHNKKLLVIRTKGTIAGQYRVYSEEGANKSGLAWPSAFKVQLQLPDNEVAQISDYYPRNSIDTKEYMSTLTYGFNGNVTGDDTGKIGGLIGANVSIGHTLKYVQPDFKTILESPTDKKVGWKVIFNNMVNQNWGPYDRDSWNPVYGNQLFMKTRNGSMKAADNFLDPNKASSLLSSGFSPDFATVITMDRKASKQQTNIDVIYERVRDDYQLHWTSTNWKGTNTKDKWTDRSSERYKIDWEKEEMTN

Compound | Dilution of wound exudate cytotoxic to A549 cells [1] | concentration that completely inactivated streptokinase [2] [µg/mL] | root canal microorganisms eliminated [3] [%] | endotoxins reduced ([4]; 7 days after biomechanical preparation) [%] | endotoxins reduced ([4]; immediately after biomechanical preparation) [%] | NaOCl concentration that completely inhibited the fungal growth [5] [mM] | EC50 [6]
OCl [HOCl, hypochlorous acid] | 1:4 | 0.001 |  |  |  |  | 
[Na+].[O-]Cl [hypochlorite, sodium hypochlorite] |  |  | 100 | 83.2 | 88.8 | 2.8 | 0.95 ± 0.18 µg/mL and 0.99 ± 0.06 µg/mL
